Results taken from PubChem BioAssay AID2060496 (Molecular Pharmacology Branch, DTP, NCI, 2025).

Tested on: 276233-004-R-J1-PDC complex spheroid viability
Assay: Anticancer human tumor 276233-004-R-J1-PDC patient-derived colon adenocarcinoma cell line growth inhibition [GQUAD]
Settings: for IC50: curve of first compound; for viability, T/C: stronger effect = lower value; active means viability on the fitted dose curve at most 10% of control; inactive means the rest
Procedure, shortened: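 Viability of tumor cells grown as complex spheroids with endothelial and stromal cells, exposed to drug combinations. Top concentration at or near clinical Cmax (else 10 microM), diluted in half-log increments.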

[1] = second compound 0.0316 µM, first compound 0.0316 µM
[2] = second compound 0.0316 µM, first compound 0.1 µM
[3] = second compound 0.0316 µM, first compound 0.316 µM
[4] = second compound 0.0316 µM, first compound 1 µM
[5] = second compound 0.0316 µM, first compound 3.16 µM
[6] = second compound 0.0316 µM, first compound 10 µM
[7] = second compound 0.1 µM, first compound 0.0316 µM
[8] = second compound 0.1 µM, first compound 0.1 µM
[9] = second compound 0.1 µM, first compound 0.316 µM
[10] = second compound 0.1 µM, first compound 1 µM
[11] = second compound 0.1 µM, first compound 3.16 µM
[12] = second compound 0.1 µM, first compound 10 µM
[13] = second compound 0.316 µM, first compound 0.0316 µM
[14] = second compound 0.316 µM, first compound 0.1 µM
[15] = second compound 0.316 µM, first compound 0.316 µM
[16] = second compound 0.316 µM, first compound 1 µM
[17] = second compound 0.316 µM, first compound 3.16 µM
[18] = second compound 0.316 µM, first compound 10 µM
[19] = second compound 1 µM, first compound 0.0316 µM
[20] = second compound 1 µM, first compound 0.1 µM
[21] = second compound 1 µM, first compound 0.316 µM
[22] = second compound 1 µM, first compound 1 µM
[23] = second compound 1 µM, first compound 3.16 µM
[24] = second compound 1 µM, first compound 10 µM
[25] = second compound 3.16 µM, first compound 0.0316 µM
[26] = second compound 3.16 µM, first compound 0.1 µM
[27] = second compound 3.16 µM, first compound 0.316 µM
[28] = second compound 3.16 µM, first compound 1 µM
[29] = second compound 3.16 µM, first compound 3.16 µM
[30] = second compound 3.16 µM, first compound 10 µM
[31] = second compound 10 µM, first compound 0.0316 µM
[32] = second compound 10 µM, first compound 0.1 µM
[33] = second compound 10 µM, first compound 0.316 µM
[34] = second compound 10 µM, first compound 1 µM
[35] = second compound 10 µM, first compound 3.16 µM
[36] = second compound 10 µM, first compound 10 µM
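Further: spheroids exposed to drugs for seven days.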
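Wherever viability, T/C is given: 100% = DMSO vehicle control viability.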

COc1cc(C2c3cc4c(cc3C(OC3OC5COC(C)OC5C(O)C3O)C3COC(=O)C23)OCO4)cc(OC)c1O (stereo not drawn) + Cc1[nH]c2ccc(F)cc2c1-c1nc2c3cccnc3c3ncccc3c2[nH]1
> 10 µM: IC50 (second compound 0.0316 µM) | IC50 (second compound 0.1 µM) | IC50 (second compound 0.316 µM) | IC50 (second compound 1 µM)
inactive: viability, T/C [1] 72.9% | viability, T/C [2] 82.7% | viability, T/C [3] 111% | viability, T/C [4] 80.6% | viability, T/C [5] 89.2% | viability, T/C [6] 83.7% | viability, T/C [7] 89.9% | viability, T/C [8] 110% | viability, T/C [9] 84.2% | viability, T/C [10] 78.9% | viability, T/C [11] 83.7% | viability, T/C [12] 76.3% | viability, T/C [13] 79.8% | viability, T/C [14] 79.7% | viability, T/C [15] 85.2% | viability, T/C [16] 101% | viability, T/C [17] 83% | viability, T/C [18] 69% | viability, T/C [19] 78.4% | viability, T/C [20] 65.1% | viability, T/C [21] 71.4% | viability, T/C [22] 64.9% | viability, T/C [23] 73.7% | viability, T/C [24] 64.2% | viability, T/C [25] 53% | viability, T/C [26] 63.3% | viability, T/C [27] 52% | viability, T/C [28] 65.7% | viability, T/C [29] 47.3% | viability, T/C [30] 50.9% | viability, T/C [31] 50.1% | viability, T/C [32] 49.6% | viability, T/C [33] 44.2% | viability, T/C [34] 50.9% | viability, T/C [35] 41% | viability, T/C [36] 45%
2.82 µM: IC50 (second compound 3.16 µM)
< 0.0316 µM: IC50 (second compound 10 µM)

C=CCn1c(=O)c2cnc(Nc3ccc(N4CCN(C)CC4)cc3)nc2n1-c1cccc(C(C)(C)O)n1 + CN(C)c1ccc(Nc2c3ccc(NC(=O)CCN4CCCC4)cc3nc3cc(NC(=O)CCN4CCCC4)ccc23)cc1
< 0.0316 µM: IC50 (second compound 1 µM) | IC50 (second compound 10 µM)
> 10 µM: IC50 (second compound 0.0316 µM) | IC50 (second compound 0.1 µM) | IC50 (second compound 0.316 µM)
0.459 µM: IC50 (second compound 3.16 µM)
inactive: viability, T/C [1] 87.6% | viability, T/C [2] 86.2% | viability, T/C [3] 66.3% | viability, T/C [4] 68.4% | viability, T/C [5] 68.6% | viability, T/C [6] 88.7% | viability, T/C [7] 81.6% | viability, T/C [8] 80.5% | viability, T/C [9] 49% | viability, T/C [10] 64.7% | viability, T/C [11] 53.2% | viability, T/C [12] 67.9% | viability, T/C [13] 81.5% | viability, T/C [14] 67.3% | viability, T/C [15] 54.6% | viability, T/C [16] 51.6% | viability, T/C [17] 54.8% | viability, T/C [18] 75% | viability, T/C [19] 47.1% | viability, T/C [20] 56.2% | viability, T/C [21] 49.7% | viability, T/C [22] 42.5% | viability, T/C [23] 54.7% | viability, T/C [24] 74% | viability, T/C [25] 56.9% | viability, T/C [26] 52.5% | viability, T/C [27] 57.2% | viability, T/C [28] 38.1% | viability, T/C [29] 52.1% | viability, T/C [30] 40.2% | viability, T/C [31] 41.4% | viability, T/C [32] 45.5% | viability, T/C [33] 53.8% | viability, T/C [34] 38.9% | viability, T/C [35] 47.9% | viability, T/C [36] 54.6%

C=CC(=O)N1CCN(c2nc(=O)n(-c3c(C)ccnc3C(C)C)c3nc(-c4c(O)cccc4F)c(F)cc23)C(C)C1 (stereo not drawn) + Cc1[nH]c2ccc(F)cc2c1-c1nc2c3cccnc3c3ncccc3c2[nH]1
> 10 µM: IC50 (second compound 0.0316 µM) | IC50 (second compound 0.1 µM) | IC50 (second compound 0.316 µM) | IC50 (second compound 1 µM) | IC50 (second compound 3.16 µM)
< 0.0316 µM: IC50 (second compound 10 µM)
inactive: viability, T/C [1] 106% | viability, T/C [2] 95.5% | viability, T/C [3] 85.4% | viability, T/C [4] 90% | viability, T/C [5] 95.2% | viability, T/C [6] 88.5% | viability, T/C [7] 102% | viability, T/C [8] 91.9% | viability, T/C [9] 103% | viability, T/C [10] 108% | viability, T/C [11] 81.4% | viability, T/C [12] 93% | viability, T/C [13] 75.5% | viability, T/C [14] 94.9% | viability, T/C [15] 74.5% | viability, T/C [16] 83.4% | viability, T/C [17] 87.4% | viability, T/C [18] 84.4% | viability, T/C [19] 81.4% | viability, T/C [20] 90.4% | viability, T/C [21] 78.4% | viability, T/C [22] 73.4% | viability, T/C [23] 84.9% | viability, T/C [24] 80.9% | viability, T/C [25] 70.7% | viability, T/C [26] 50.6% | viability, T/C [27] 49.4% | viability, T/C [28] 52.3% | viability, T/C [29] 68.6% | viability, T/C [30] 52.2% | viability, T/C [31] 39% | viability, T/C [32] 38.7% | viability, T/C [33] 61% | viability, T/C [34] 53.1% | viability, T/C [35] 56% | viability, T/C [36] 51%

CCCS(=O)(=O)Nc1ccc(F)c(C(=O)c2c[nH]c3ncc(-c4ccc(Cl)cc4)cc23)c1F + CN(C)c1ccc(Nc2c3ccc(NC(=O)CCN4CCCC4)cc3nc3cc(NC(=O)CCN4CCCC4)ccc23)cc1
inactive: viability, T/C [1] 81.6% | viability, T/C [2] 83.2% | viability, T/C [3] 78% | viability, T/C [4] 102% | viability, T/C [5] 91% | viability, T/C [6] 65.2% | viability, T/C [7] 76.4% | viability, T/C [8] 80% | viability, T/C [9] 78.2% | viability, T/C [10] 77.1% | viability, T/C [11] 71% | viability, T/C [12] 70.8% | viability, T/C [13] 72.9% | viability, T/C [14] 64.3% | viability, T/C [15] 68.8% | viability, T/C [16] 63% | viability, T/C [17] 65.3% | viability, T/C [18] 55.1% | viability, T/C [19] 60.2% | viability, T/C [20] 58.2% | viability, T/C [21] 56.8% | viability, T/C [22] 65.2% | viability, T/C [23] 53.3% | viability, T/C [24] 63.4% | viability, T/C [25] 62.1% | viability, T/C [26] 56.6% | viability, T/C [27] 50.8% | viability, T/C [28] 46.1% | viability, T/C [29] 59.1% | viability, T/C [30] 55.6% | viability, T/C [31] 33.9% | viability, T/C [32] 45.9% | viability, T/C [33] 40.4% | viability, T/C [34] 38.2% | viability, T/C [35] 39.3% | viability, T/C [36] 56.6%
> 10 µM: IC50 (second compound 0.0316 µM) | IC50 (second compound 0.1 µM) | IC50 (second compound 0.316 µM) | IC50 (second compound 1 µM) | IC50 (second compound 3.16 µM)
< 0.0316 µM: IC50 (second compound 10 µM)
